In patent US20230270810A1, “VETERINARY COMPOSITIONS FOR THE TREATMENT AND/OR PREVENTION OF PROTOZOAN DISEASES AND METHODS OF PREPARATION THEREOF” (ADIFEED SP. Z O. O., priority 2020, published 2023):

What was measured:
Trichomonas hominis = test: in vitro protozoicidal test, LD50/LD100 within 3 minutes; type: cell-based
Amoeba proteus = test: as above; type: cell-based
Gregarina blattarum = test: in vitro protozoicidal test, LD50/LD100 within 3 minutes, gregarines isolated from cockroaches; type: cell-based; details: in Ringer's solution
Description: For in vitro tests of antiprotozoal activity of the composition five reference organisms representing taxonomic groups to which pathogenic protozoa belong were selected, i.e: • Amoeba proteus—Chaos diffluens—a protozoan of the order Euamoebida, belonging to fifth supergroup of the Amoebozoa, living in waters. • Paramecium caudatum—a slipper animalcule representing the Ciliata orachs, living in waters. • Gregarina blattarum—gregarine isolated from cockroaches, representing the phylum Apicomplexa, living in the digestive tracts or body cavities of invertebrates. • Euglena gracilis—a protozoan living in water, representing the flagellates—Mastigophora, family Euglenaceae. • Trichomonas hominis—a protozoan living in the human colon, representing the Trichomonadidae.
The gregarines were isolated from the cockroaches and, after being placed on a watch slide, were treated with the products at different concentrations in Ringer's solution. Each sample contained ten individuals. […]
The mixture was heated at the boiling point, until the colour changed, under reflux for 20 minutes. […] Compositions I and II were then analysed for their antiprotozoal properties. […]
Individual acids, catalyst solution, essential oil and metal salt solutions were additionally analysed for protozoal properties. […] Observation under a fluorescence microscope with phase contrast was carried out.

Trypanosoma cruzi = details: read-out: inhibitory effect on 50% of the population (IC50); cited from earlier work
[1] = system: Trypanosoma cruzi and Leishmania chagasi; details: cited from earlier work
[2] = system: Trypanosoma cruzi and different Leishmania species; details: cited from earlier work
[3] = death of 50% of individuals within 3 minutes
[4] = death of 100% of individuals within 3 minutes

Cc1ncc([N+](=O)[O-])n1CCO [M, metronidazole]
LD50 (Trichomonas hominis; [3]): 0.05%
LD100 (Trichomonas hominis; [4]): 0.1%
LD50 (Amoeba proteus; [3]): 0.3%
LD100 (Amoeba proteus; [4]): 0.5%
LD50 (Gregarina blattarum; 50% of individuals within 3 minutes): 0.13%
LD100 (Gregarina blattarum; 100% of individuals within 3 minutes): 0.3%

CC1CS(=O)(=O)CCN1/N=C/c1ccc([N+](=O)[O-])o1 (stereo not drawn) [Nifurtimox]
IC50 (Trypanosoma cruzi): 6 µM
IC50 [1]: 0.3 to 0.4 µg/mL

O=C(Cn1ccnc1[N+](=O)[O-])NCc1ccccc1 [benznidazole]
values obtained (in vitro antiprotozoal activity) [2]: 45.02 µg/mL
